Test results: patent publication US10980814B2, “Fused pentacyclic imidazole derivatives as modulators of TNF activity” (UCB Biopharma SRL, priority 2017, dated 2021)

Target: T1, human hERG channels (Kv11.1) (Homo sapiens, UniProt Q12809)
T1 construct: host or cells: CHO cells (hERG-Duo cells)
Assay: hERG assay, automated planar patch-clamp in CHO cells stably expressing human hERG channels
Format: cell-based
Conditions: peak tail-current, QPatch HTX whole-cell voltage-clamp, room temperature, 0.12-30 μM
Description: Pharmacological activity of the compounds at cardiac hERG channels (Kv11.1) was assessed functionally using an automated planar patch-clamp electrophysiology station. CHO cells stably expressing human hERG channels were grown under the permanent pressure of the appropriate selection antibiotics according to the specifications of the manufacturer (hERG-Duo cells, B'SYS GmbH, Switzerland). Cells were harvested below 80% confluence, suspended in serum-free medium and dispensed automatically to multi-well recording plates for whole-cell voltage-clamp recordings on a QPatch HTX workstation (Sophion, BiolinScientific AB, Denmark). The composition of the extracellular recording buffer was (in mM): NaCl, 150; KCl, 4; CaCl2), 2; MgCl2, 1; HEPES, 10; and glucose, 10; adjusted to pH 7.4 with NaOH. The intracellular buffer contained (in mM): KCl, 120; CaCl2), 5; MgCl2, 2; EGTA, 10; HEPES, 10; and Mg-ATP, 4; adjusted to pH 7.2 with KOH. The voltage protocol used to activate hERG currents consisted in a first depolarizing step from a −80 mV holding potential to +20 mV for 5 s followed by a second repolarizing step to −50 mV. Cycle time was 15 s, recordings were performed at room temperature and drug effects were evaluated on the peak tail-current elicited by the second repolarizing step. For pharmacology, stock solutions of the test articles at 10 mM were prepared in DMSO. A 6-point concentration-range was prepared in polypropylene micro-titer plates by first serially diluting the initial 10 mM stock 1:3 in DMSO and then diluting each of the 6 intermediate working solutions 1:333 in extracellular recording medium containing 0.06% Pluronic F-68 (Gibco/Thermofischer, France). Final concentrations of test articles (i.e. 0.12 μM, 0.37 μM, 1.1 μM, 3.3 μM, 10 μM and 30 μM) were applied cumulatively to the cells in ascending order. A positive control (terfenadine, 10 μM) was added at the end of each recording sequence. Time-course of hERG tail current amplitude was analyzed off-line following optional leak current substraction and compensation of current rundown as needed. Half-maximal inhibitory concentrations (IC50) were obtained by fitting current amplitudes measured at the end of each exposure period and normalized with respect to pre-drug baseline with a four parameter sigmoidal equation.

T1 sequence (Q12809 whole entry): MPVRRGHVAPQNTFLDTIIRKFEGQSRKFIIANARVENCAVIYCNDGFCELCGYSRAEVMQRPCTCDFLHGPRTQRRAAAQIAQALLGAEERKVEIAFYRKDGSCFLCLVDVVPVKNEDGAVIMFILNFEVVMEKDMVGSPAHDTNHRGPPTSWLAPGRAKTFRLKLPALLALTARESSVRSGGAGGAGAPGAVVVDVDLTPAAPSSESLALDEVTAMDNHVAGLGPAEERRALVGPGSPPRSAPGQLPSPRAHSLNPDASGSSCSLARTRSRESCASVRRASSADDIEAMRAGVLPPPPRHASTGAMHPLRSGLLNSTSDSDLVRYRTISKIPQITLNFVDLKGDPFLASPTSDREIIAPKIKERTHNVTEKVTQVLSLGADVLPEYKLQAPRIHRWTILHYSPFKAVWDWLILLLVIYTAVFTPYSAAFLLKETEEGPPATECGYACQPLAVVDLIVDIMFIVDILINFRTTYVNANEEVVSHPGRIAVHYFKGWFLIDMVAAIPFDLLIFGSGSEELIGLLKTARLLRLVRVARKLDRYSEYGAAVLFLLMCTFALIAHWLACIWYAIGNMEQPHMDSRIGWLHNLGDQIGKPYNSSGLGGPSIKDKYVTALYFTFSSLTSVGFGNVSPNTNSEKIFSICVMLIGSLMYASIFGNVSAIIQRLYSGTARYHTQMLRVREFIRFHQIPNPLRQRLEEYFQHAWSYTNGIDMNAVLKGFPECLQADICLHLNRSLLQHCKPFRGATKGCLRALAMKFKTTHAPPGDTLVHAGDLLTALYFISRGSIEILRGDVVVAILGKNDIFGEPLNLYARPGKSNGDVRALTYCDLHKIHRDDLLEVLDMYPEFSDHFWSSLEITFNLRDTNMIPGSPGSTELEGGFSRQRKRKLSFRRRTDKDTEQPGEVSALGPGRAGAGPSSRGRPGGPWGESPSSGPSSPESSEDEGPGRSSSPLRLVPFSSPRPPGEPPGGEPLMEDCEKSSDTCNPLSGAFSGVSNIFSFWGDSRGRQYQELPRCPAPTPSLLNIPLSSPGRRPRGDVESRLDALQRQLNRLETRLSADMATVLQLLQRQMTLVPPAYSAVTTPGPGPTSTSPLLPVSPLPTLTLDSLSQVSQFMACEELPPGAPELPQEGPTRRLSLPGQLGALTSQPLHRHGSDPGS

Row | Structure (SMILES) | IC50 [µM]
1 | C[C@]1(C#N)C[C@](N)(c2ncc(-c3ccc4nc5n(c4c3)[C@@H]3C[C@H]5NC(=O)c4cccc(OC(F)F)c43)cn2)C1 [Example 2, cis-3-Amino-3-{5-[(7R,14R)-1-(difluoromethoxy)-5-oxo-5,6,7,14-tetrahydro-7,14-methanobenzimidazo[1,2-b][2,5]benzodiazocin-11-yl]pyrimidin-2-yl}-1-methyl-cyclobutanecarbonitrile] | > 30
2 | N[C@]1(c2ncc(-c3ccc4nc5n(c4c3)[C@@H]3C[C@H]5NC(=O)c4cccc(OC(F)F)c43)cc2F)C[C@@](O)(C(F)(F)F)C1 [Example 13, (7R,14R)-11-{6-[cis-1-Amino-3-hydroxy-3-(trifluoromethyl)cyclobutyl]-5-fluoropyridin-3-yl}-1-(difluoromethoxy)-6,7-dihydro-7,14-methanobenzimidazo[1,2-b][2,5]-benzodiazocin-5(14H)-one] | > 30
3 | CN1C(=O)c2cccc(OC(F)F)c2[C@H]2C[C@@H]1c1nc3ccc(-c4cnc([C@]5(N)C[C@](O)(C(F)(F)F)C5)c(F)c4)cc3n12 (single isomer, unassigned) [Example 11] | > 30
4 | C[C@@H]1CC[C@@]1(N)c1ncc(-c2ccc3nc4n(c3c2)[C@@H]2C[C@H]4NC(=O)c3cccc(OC(F)F)c32)cc1F (single isomer, unassigned) [Example 5, (7R,14R)-11-{6-[(1 S,2R)-1-Amino-2-methylcyclobutyl]-5-fluoropyridin-3-yl}-1-(difluoromethoxy)-6,7-dihydro-7,14-methanobenzimidazo[1,2-b][2,5]benzodiazocin-5(14M-one or (7R,14R)-11-{6-[(1R,2S)-1-Amino-2-methylcyclobutyl]-5-fluoropyridin-3-yl}-1-(difluoromethoxy)-6,7-dihydro-7,14-methanobenzimidazo[1,2-b][2,5]-benzodiazocin-5(14H)-one] | > 30
5 | C[C@]1(O)C[C@](N)(c2ncc(-c3ccc4nc5n(c4c3)[C@@H]3C[C@H]5NC(=O)c4cccc(OC(F)F)c43)cc2F)C1 [Example 8, (7R,14R)-11-[6-(cis-1-Amino-3-hydroxy-3-methylcyclobutyl)-5-fluoropyridin-3-yl]-1-(difluoromethoxy)-6,7-dihydro-7,14-methanobenzimidazo[1,2-b][2,5]benzodiazocin-5(14H)-one] | > 30
6 | C[C@]1(CO)C[C@](N)(c2ncc(-c3ccc4nc5n(c4c3)[C@@H]3C[C@H]5NC(=O)c4cccc(OC(F)F)c43)cn2)C1 [Example 15, (7R,14R)-11-{2-[cis-1-Amino-3-(hydroxymethyl)-3-methylcyclobutyl]pyrimidin-5-yl}-1-(difluoromethoxy)-6,7-dihydro-7,14-methanobenzimidazo[1,2-b][2,5]benzodiazocin-5(14H)-one] | > 30
7 | C[C@]1(C#N)C[C@](N)(c2ncc(-c3ccc4nc5n(c4c3)[C@@H]3C[C@H]5NC(=O)c4cccc(OC(F)F)c43)cc2F)C1 [Example 4, cis-3-Amino-3-{5-[(7R,14R)-1-(difluoromethoxy)-5-oxo-5,6,7,14-tetrahydro-7,14-methanobenzimidazo[1,2-b][2,5]benzodiazocin-11-yl]-3-fluoropyridin-2-yl}-1-methyl-cyclobutanecarbonitrile] | > 30
8 | CN1C(=O)c2cccc(OC(F)F)c2[C@H]2C[C@@H]1c1nc3ccc(-c4cnc([C@]5(N)C[C@](O)(C(F)(F)F)C5)nc4)cc3n12 (single isomer, unassigned) [Example 12] | > 30
9 | CN1C(=O)c2cccc(OC(F)F)c2[C@H]2C[C@@H]1c1nc3ccc(-c4cnc(C5(N)CCC5)nc4)cc3n12 [Example 6, (7R,14R)-11-[2-(1-Aminocyclobutyl)pyrimidin-5-yl]-1-(difluoromethoxy)-6-methyl-6,7-dihydro-7,14-methanobenzimidazo[1,2-b][2,5]benzodiazocin-5(14H)-one] | ~8
10 | [2H]C([2H])(O)[C@]1(C)C[C@@](N)(c2ncc(-c3ccc4nc5n(c4c3)[C@@H]3C[C@H]5NC(=O)c4cccc(OC(F)F)c43)cc2F)C1 [Example 16, (7R,14R)-11-(6-{cis-1-Amino-3-[hydroxy(dideutero)methyl]-3-methylcyclobutyl}-5-fluoropyridin-3-yl)-1-(difluoromethoxy)-6,7-dihydro-7,14-methanobenzimidazo[1,2-b]-[2,5]benzodiazocin-5(14H)-one] | > 30
11 | C[C@]1(CO)C[C@](N)(c2ncc(-c3ccc4nc5n(c4c3)[C@@H]3C[C@H]5NC(=O)c4cccc(OC(F)F)c43)cc2F)C1 [Example 10, (7R,14R)-11-{6-[cis-1-Amino-3-(hydroxymethyl)-3-methylcyclobutyl]-5-fluoropyridin-3-yl}-1-(difluoromethoxy)-6,7-dihydro-7,14-methanobenzimidazo[1,2-b][2,5]-benzodiazocin-5(14H)-one] | > 30
12 | [2H]C([2H])(O)[C@]1(C)C[C@@](N)(c2ncc(-c3ccc4nc5n(c4c3)[C@@H]3C[C@H]5NC(=O)c4cccc(OC(F)F)c43)cn2)C1 [Example 14, (7R,14R)-11-(2-{cis-1-Amino-3-[hydroxy(dideutero)methyl]-3-methylcyclobutyl}-pyrimidin-5-yl)-1-(difluoromethoxy)-6,7-dihydro-7,14-methanobenzimidazo[1,2-b][2,5]-benzodiazocin-5(14H)-one] | > 30
